This is an account of results in patent US9428553B2, “Meditopes and meditope-binding antibodies and uses thereof” (City of Hope, priority 2012, dated 2016).

“Also recorded” adds a separate entry of the source. Where a SMILES comes first, the peptide text is derived from it. Bridges are numbered along the chain shown (N, C = ends). Where no end group is shown, it is not given here.

The test system of one test is cetuximab Fab. Kind of test: SPR, meditopes over cetuximab Fab immobilized on CM5 chip. The conditions noted are these: relative to WT cQFD. The class given is binding. On the procedure: Affinity analysis by SPR was performed as previously described (Donaldson et al., 2009; Li et al., 2005, supra). […] SEC was performed using a Superdex 200 10/300 column (GE Healthcare). The proteins were mixed, incubated at room temperature for 20 min and applied to the column at 4° C.
The binding kinetics were also measured (FIG. 3).
The point mutation and wild type cQFD meditopes were generated as C-terminal fusions to SMT3 and cleaved with Ulp1 before the analysis.
(In SPR one partner is held on a chip, and binding of the other changes the refractive index at the surface.)

The test system of test [1] is meditope-enabled trastuzumab (TM). Put plainly: SPR, MPL linker variants flowed over immobilized TM. The conditions noted are these: 1:1 langmuir binding model. Here is the method:
Protein was purified by affinity and size exclusion chromatography. […] Kinetic information was calculated using Biaevaluation software using a 1:1 langmuir binding model.

In test [2] the test system is MDA-MB-468 cells. Kind of test: MTT assay. Type of test: cell-based. Conditions: for cell growth: 48-hour incubation, 0.1 μM cetuximab, 0.01, 0.1 and 1 μM meditope or meditope-Fc. Here is the method: 4000 MDA-MB-468 cells were placed in each well of a 96 well plate in 80 μl of medium.
The assay compared the enhancement of cetuximab-mediated inhibition of antigen-expressing tumor cell growth by meditope-Fc and by M425 (a mouse anti-EGFR antibody). 4000 MDA-MB-468 cells were placed in each well of a 96 well plate in 80 μl of medium. […] After a 48-hour incubation period, 10 μl MTT reagent was added and the mixture allowed to incubate for an additional 4 hours. The culture supernatant was removed, 100 μl of MTT crystal dissolving reagent added, and the plate read at 630 nm.
(Formazan colour is commonly taken as a measure of viable cells.)

For test [3], the system named is MDA-MB-468 cells. Kind of test: FACS, meditope binding to cetuximab pre-treated EGFR-expressing cells. Type of test: cell-based. On the procedure:
In another study, the meditope-Fc fusion protein was labeled with Alexa488 as described above. […] Unbound antibody was washed and the cells were incubated with the meditope-Fc (600 nM, 180 nM, or 60 nM) for 30 minutes.

For the next test, the system named is SKBR3 cells. Put plainly: FACS, antibody and meditope binding to HER2 over-expressing cells. The class given is cell-based. An excerpt: Unbound antibody was washed twice and analyzed by flow cytometry.
In general terms: In flow cytometry, cells or beads pass a laser one at a time.

Another test has as its target T1, sEGFRdIII (Homo sapiens, UniProt P00533).
T1 construct: soluble epidermal growth factor receptor domain III (sEGFRdIII) were expressed in Sf9 cells; made in house; host or cells: Sf9 cells
Put plainly: FRET titration of labeled cetuximab Fab with labeled sEGFRdIII. Conditions: in the presence of the cQFD meditope (66 μM). Type of test: binding.

Test [4] has as its system cetuximab. Kind of test: SPR binding affinity as a function of buffer pH. Conditions: pH=4.0 to pH=8.0. From the text:
FIG. 27 is a graph showing surface plasmon resonance (SPR) studies.

The next test deals with MDA MB-468 cells. Kind of test: FACS, cetuximab binding to EGFR-expressing cells in the presence of meditope. Conditions: meditope concentrations greater than 60 μM. Type of test: cell-based. On the procedure: Labeled MOPS-21 was used as an isotype control. Cell fluorescence was determined using a FACS Calibur instrument (BD Biosciences).
In test [5] the test system is cetuximab. Put plainly: SPR (Biacore T100), variant meditopes over immobilized cetuximab IgG or cetuximab Fab. Type of test: binding. Conditions: in words. On the procedure: The final volume after dialysis was carefully measured and absorbance measurements were taken to estimate the concentration (typically 1-10 mM). These stock solutions were used to make dilutions into HBS-EP buffer (10 mM Hepes pH 7.4, 150 mM NaCl, 3 mM EDTA and 0.05% v/v surfactant P20) for SPR measurements. […] Ligands were immobilized at low levels suitable for kinetic data. Typical kinetics SPR experiments were carried out at a flow rate of 30 μL/min using HBS-EP as both running and regeneration buffer. Kinetic parameters were calculated using the Biacore T100 evaluation software version 2.0.1.
Each chip was first characterized using a soluble fragment of the entire extracellular domain of EGFR (residues 1-621).

Test [6] has as its system meditope-enabled M5A (M5A 8M). Put plainly: SPR, meditope variants with meditope-enabled M5A. The conditions noted are these: FIG. 58. The class given is binding.

T1 sequence (P00533 335-538 limits assumed): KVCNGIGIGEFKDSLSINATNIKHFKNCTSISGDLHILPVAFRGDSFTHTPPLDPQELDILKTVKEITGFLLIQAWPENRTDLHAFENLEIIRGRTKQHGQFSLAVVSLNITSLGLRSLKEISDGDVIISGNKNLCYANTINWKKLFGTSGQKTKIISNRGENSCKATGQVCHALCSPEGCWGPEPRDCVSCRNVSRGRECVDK

`CC(C)C[C@@H]1NC(=O)[C@H](CC(=O)O)NC(=O)[C@H](Cc2ccccc2)NC(=O)[C@H](CCC(N)=O)NC(=O)[C@@H](N)CSSC[C@@H](C(=O)O)NC(=O)[C@H](CCCCN)NC(=O)[C@H](C)NC(=O)[C@H](CCCNC(=N)N)NC(=O)[C@H](CCCNC(=N)N)NC(=O)[C@H]([C@@H](C)O)NC(=O)[C@H](CO)NC1=O` [Meditope 29] (H-CQFDLSTRRAKC-OH; disulfide 1-12) displayed a ΔΔG with cetuximab Fab of 0.63 kcal/mol.
As to `CC(C)C[C@@H]1NC(=O)[C@H](CCCNC(=N)N)NC(=O)[C@H](CCCNC(=N)N)NC(=O)[C@H]([C@@H](C)O)NC(=O)[C@H](CO)NC(=O)[C@H](CC(C)C)NC(=O)[C@H](CC(=O)O)NC(=O)[C@H](Cc2ccccc2)NC(=O)[C@H](CCC(N)=O)NC(=O)[C@@H](N)CSSC[C@@H](C(=O)O)NC(=O)[C@H](CCCCN)NC1=O` [meditope], in [1], the “off-rate, kd” value turned out to be 0.01641 s⁻¹ and the “on-rate, ka” value turned out to be 13250 M⁻¹ s⁻¹.
With “meditope-Fc: cQFD fused to the N-terminus of an IgG Fc region through a 17 amino acid glycine/serine linker”, the “enhancement of cell-killing capacity of cetuximab” value in the test on MDA-MB-468 cells [2] (0.1 μM cetuximab with 0.2, 0.4 or 0.8 μM agent, 48 hours) is on record as “enhanced the cell-killing capacity of cetuximab to a similar degree”. For the same molecule, the cell growth result with MDA-MB-468 cells [2] is listed as “inhibited cell growth”. In addition, in the test on MDA-MB-468 cells [3], the “binding to cells pre-treated with cetuximab” value is “higher affinity compared to the meditope monomer; also recorded: bound to the cells incubated with cetuximab, but not to cells incubated with M425”. Moreover, in the test on SKBR3 cells, the “meditope binding to antibody pre-bound cells” value is listed as “binds to the meditope-enabled trastuzumab, but not to wild-type trastuzumab”.
Consider `CC(C)C[C@@H]1NC(=O)[C@H](CCCNC(=N)N)NC(=O)[C@H](CCCNC(=N)N)NC(=O)[C@H]([C@@H](C)O)NC(=O)[C@H](CO)NC(=O)[C@H](CC(C)C)NC(=O)[C@H](CC(=O)O)NC(=O)[C@H](Cc2ccccc2)NC(=O)[C@H](CCC(N)=O)NC(=O)[C@@H](N)CSSC[C@@H](C(=O)O)NC(=O)[C@H](CCCCN)NC1=O` [Meditope 1], for which the “change in the binding constant of the Fab-sEGFRdIII interaction” value on sEGFRdIII was “no substantial change”. Besides, in the test with MDA-MB-468 cells [2], the cell growth entry is “Neither addition of monovalent meditope (alone or with cetuximab), or meditope-Fc alone altered cell growth significantly”. The “pH dependence of affinity” value in the test with cetuximab [4] was “slightly greater at higher pHs”. Besides, in the test with MDA MB-468 cells, the “changes in cetuximab binding to the cells” value is reported as “no significant changes”.
With `CC(C)C[C@@H]1NC(=O)[C@H](C)NC(=O)[C@H](CCCNC(=N)N)NC(=O)[C@H](CO)NC(=O)[C@H](CO)NC(=O)[C@H](CC(C)C)NC(=O)[C@H](CC(N)=O)NC(=O)[C@H](Cc2ccc(O)cc2)NC(=O)[C@H](CCC(N)=O)NC(=O)[C@@H](N)CSSC[C@@H](C(=O)O)NC(=O)[C@H](CCCCN)NC1=O` [Meditope 2], in the test with cetuximab [5], the “affinity compared to cQFD” value was “reduced”. For the same molecule, the “pH dependence of affinity” value with cetuximab [4] is reported as “flat pH dependence”. The “binding to meditope-enabled antibody” value in [6] was “confirming binding”.
Consider “C-QYDLSTRRLK-C (CQYDLSTRRLKC; disulfide 1-12) [Meditope 16, Y = tyrosine; Disulfide 1-Cys:12-Cys]”, for which the “pH dependence of affinity” value in the test with cetuximab [4] is reported as “marked decrease in affinity”.
In the case of “SQFDLSTRRLKS [Meditope 55, No linkage; linear peptide]”, the “affinity compared to cQFD” value in the test on cetuximab [5] is on record as “reduced affinity”.
Take `CC(C)C[C@@H]1NC(=O)[C@H](CCCNC(=N)N)NC(=O)[C@H](CCCNC(=N)N)NC(=O)[C@H]([C@@H](C)O)NC(=O)[C@H](CO)NC(=O)[C@H](CC(C)C)NC(=O)[C@H](CC(=O)O)NC(=O)[C@H](C(c2ccccc2)c2ccccc2)NC(=O)[C@H](CCC(N)=O)NC(=O)[C@@H](N)CSSC[C@@H](C(=O)O)NC(=O)[C@H](CCCCN)NC1=O` [Meditope 17, C-QXDLSTRRLK-C]: the “binding to meditope-enabled antibody” value in test [6] is “confirming binding”.
In the case of `CC(C)C[C@@H]1NC(=O)[C@H](CCCNC(=N)N)NC(=O)[C@H](CCCNC(=N)N)NC(=O)[C@H]([C@@H](C)O)NC(=O)[C@H](CO)NC(=O)[C@H](C(c2ccccc2)c2ccccc2)NC(=O)[C@H](CC(=O)O)NC(=O)[C@H](Cc2ccccc2)NC(=O)[C@H](CCC(N)=O)NC(=O)[C@@H](N)CSSC[C@@H](C(=O)O)NC(=O)[C@H](CCCCN)NC1=O` [Meditope 18, C-QFDXSTRRLK-C], the “binding to meditope-enabled antibody” value in [6] is “confirming binding”.
For “Q-FDLSTRRLK-X [Meditope 42, X = 7-aminoheptanoic acid; Lactam 1-Gln: 11-X]”, in the test with cetuximab [5], the “affinity compared to cQFD” value is listed as “decreased”.
Turning to AcC-QFDLSTRRLR-CGGGSK [Meditope 31], the “binding to meditope-enabled antibody” value in [6] is given as “confirming binding”.
For “MPL (L3): meditope SCQFDLSTRRLKC fused to Protein L moiety through linker GGGGS”, in test [1], the “off-rate, kd” value was determined as 6.441e-05 s⁻¹ and the “on-rate, ka” value came out at 383200 M⁻¹ s⁻¹. Further, the “meditope binding to antibody pre-bound cells” value in the test on SKBR3 cells is “tight binding affinity”.

B1: MPL F3A R8A (L3): MPL mutant weakening the affinity of the meditope portion, linker L3 (protein)
chain: SCQADLSTARLKCGGGGSEVTIKVNLIFADGKIQTAEFKGTFEEATAEAYRYAALLAKVNGEYTADLEDGGNHMNIKFAG
Consider B1, for which, in [1], the “off-rate, kd” value turned out to be 0.02239 s⁻¹ and the “on-rate, ka” value was 81350 M⁻¹ s⁻¹. Besides, the Kd in [1] (read-out: Dissociation constant, KD) was 275 nM.

The Kd is the concentration at which binding is half-saturated.
